29 compounds from patent US20220317138A1, “METHODS FOR DETERMINING THE CONCENTRATION OF A CARBAPENEM ANTIBIOTIC IN A BIOLOGICAL SAMPLE” (priority 2019, published 2022) can be followed below.

The test concerns the target beta-lactamase class D OXA-48 (Klebsiella pneumoniae, UniProt Q6XEC0). In kind it is biochemical. As to conditions: for Average [meropenem]: average of three replicates.
Where [1] appears, read: second drug alone in ultrafiltrated serum at 10 times recommended blood concentration, result expressed as meropenem concentration, theoretically zero.
Where [2] appears, read: second drug alone in ultrafiltrated serum at 10 times recommended blood concentration, result expressed as meropenem concentration, theoretically zero, replicate 1.
[3] abbreviates: second drug alone in ultrafiltrated serum at 10 times recommended blood concentration, result expressed as meropenem concentration, theoretically zero, replicate 2.
The mark [4] stands for this setting: second drug alone in ultrafiltrated serum at 10 times recommended blood concentration, result expressed as meropenem concentration, theoretically zero, replicate 3.
The mark [5] stands for this setting: second drug alone in ultrafiltrated serum at 10 times recommended blood concentration, […].

Read-outs that look alike come from different tables or passages of the source. Numbered stars: 1 amine (or outer) side, 2 acyl side, 3 side chain; on linkers, the order of the positions; unused ones are H or OH. Bridge positions count the residues as written; N and C are the ends. Square brackets hold non-standard residues; d marks the D form. Peptide text beside a SMILES is read from it. * marks the point of attachment. pTerphenylCO(4''-OnC5H11) = CCCCCOc1ccc(-c2ccc(-c3ccc(C(=O)*)cc3)cc2)cc1; Orn(4R-OH,5R-OH) = O=C([C@H](C[C@@H](O)[C@@H](O)N[*:3])N[*:1])[*:2]; hTyr(3S-OH,4S-OH) = N[C@H](C(=O)O)[C@H](O)[C@@H](O)c1ccc(O)cc1; Pro(3S-OH,4S-Me) = C[C@H]1CN[C@H](C(=O)O)[C@H]1O; Hyp = O=C(O)[C@@H]1C[C@@H](O)CN1

Take `CNCC(O)c1ccc(O)c(O)c1` (stereo not drawn) [Adrenaline]: the “Average [meropenem]” value under setting [1] is -0.10 mg/L. For the same compound, under setting [2], the “[meropenem] (mg/L) Replicates 1” value was 0.06 mg/L. Also, the “[meropenem] (mg/L) Replicates 2” value under setting [3] was -0.37 mg/L. Besides, under setting [4], the “[meropenem] (mg/L) Replicates 3” value is 0.00 mg/L.
`CCCCCOc1ccc(-c2ccc(-c3ccc(C(=O)N[C@H]4C[C@@H](O)[C@@H](O)NC(=O)[C@@H]5[C@@H](O)[C@@H](C)CN5C(=O)[C@H]([C@@H](C)O)NC(=O)[C@H]([C@H](O)[C@@H](O)c5ccc(O)cc5)NC(=O)[C@@H]5C[C@@H](O)CN5C(=O)[C@H]([C@@H](C)O)NC4=O)cc3)cc2)cc1` [Anidulafungin] ({pTerphenylCO(4''-OnC5H11)}-[Orn(4R-OH,5R-OH)]T[Hyp][hTyr(3S-OH,4S-OH)]T[Pro(3S-OH,4S-Me)]; lactam 1-C): the “[meropenem] (mg/L) Replicates 1” value was found to be 0.09 mg/L, the “[meropenem] (mg/L) Replicates 2” value is listed as 0.06 mg/L and the “[meropenem] (mg/L) Replicates 3” value is 0.14 mg/L. In addition, the “Average [meropenem]” value under setting [5] is listed as 0.10 mg/L.
For `[Ca+2].[Cl-].[Cl-]` [Calciclo] the same measures were 0.05 mg/L, -0.04 mg/L, -0.09 mg/L and -0.03 mg/L.
The corresponding values for `CC[C@H](C)C[C@H](C)CCCCCCCCC(=O)N[C@H]1C[C@@H](O)[C@@H](NCCN)NC(=O)[C@@H]2[C@@H](O)CCN2C(=O)[C@H]([C@H](O)CCN)NC(=O)[C@H]([C@H](O)[C@@H](O)c2ccc(O)cc2)NC(=O)[C@@H]2C[C@@H](O)CN2C(=O)[C@H]([C@@H](C)O)NC1=O` [Caspofungin] are 0.03 mg/L, 0.06 mg/L, 0.07 mg/L and 0.05 mg/L.
For the compound `O=C1CN=C(c2ccccc2Cl)c2cc([N+](=O)[O-])ccc2N1` [Clonazepam], the “Average [meropenem]” value under setting [1] is recorded as 0.05 mg/L. For the same compound, the “[meropenem] (mg/L) Replicates 1” value under setting [2] was found to be 0.06 mg/L. The “[meropenem] (mg/L) Replicates 2” value under setting [3] amounted to 0.06 mg/L. Besides, under setting [4], the “[meropenem] (mg/L) Replicates 3” value was 0.01 mg/L.
With `CCCCc1oc2ccccc2c1C(=O)c1cc(I)c(OCCN(CC)CC)c(I)c1` [Cordarone], the “Average [meropenem]” value under setting [1] was -0.16 mg/L. Also, under setting [2], the “[meropenem] (mg/L) Replicates 1” value is -0.16 mg/L. Further, the “[meropenem] (mg/L) Replicates 2” value under setting [3] was -0.15 mg/L. The “[meropenem] (mg/L) Replicates 3” value under setting [4] was -0.18 mg/L.
For `CCCC(CCC)C(=O)[O-].[Na+]` [Dapakine], the “[meropenem] (mg/L) Replicates 1” value is -0.10 mg/L, the “[meropenem] (mg/L) Replicates 2” value is -0.10 mg/L and the “[meropenem] (mg/L) Replicates 3” value was -0.09 mg/L. The “Average [meropenem]” value under setting [5] was -0.09 mg/L.
In the case of `CN1C(=O)CN=C(c2ccccc2)c2cc(Cl)ccc21` [Diazepam], the “Average [meropenem]” value under setting [1] is on record as 0.03 mg/L. The “[meropenem] (mg/L) Replicates 1” value under setting [2] was found to be 0.05 mg/L. Besides, the “[meropenem] (mg/L) Replicates 2” value under setting [3] is on record as 0.04 mg/L. The “[meropenem] (mg/L) Replicates 3” value under setting [4] was found to be 0.01 mg/L.
Take `O=C1NC(=O)C(c2ccccc2)(c2ccccc2)N1` [Diphantoïne]: the “[meropenem] (mg/L) Replicates 1” value was -0.15 mg/L, the “[meropenem] (mg/L) Replicates 2” value is -0.11 mg/L and the “[meropenem] (mg/L) Replicates 3” value stood at 0.02 mg/L. In addition, under setting [5], the “Average [meropenem]” value was -0.08 mg/L.
Consider `CC(CCc1ccc(O)cc1)NCCc1ccc(O)c(O)c1` (stereo not drawn) [Dobutrex], for which the “Average [meropenem]” value under setting [1] was -0.11 mg/L. Also, the “[meropenem] (mg/L) Replicates 1” value under setting [2] was -0.07 mg/L. For the same compound, the “[meropenem] (mg/L) Replicates 2” value under setting [3] was -0.11 mg/L. Besides, the “[meropenem] (mg/L) Replicates 3” value under setting [4] is -0.14 mg/L.
Consider `NCCc1ccc(O)c(O)c1` [Dopamine], for which the “Average [meropenem]” value under setting [1] is -0.06 mg/L. For the same compound, under setting [2], the “[meropenem] (mg/L) Replicates 1” value was -0.05 mg/L. Moreover, under setting [3], the “[meropenem] (mg/L) Replicates 2” value is -0.06 mg/L. The “[meropenem] (mg/L) Replicates 3” value under setting [4] is -0.07 mg/L.
In the case of `OC(Cn1cncn1)(Cn1cncn1)c1ccc(F)cc1F` [Fluconazole], under setting [1], the “Average [meropenem]” value turned out to be 0.07 mg/L. For the same compound, under setting [2], the “[meropenem] (mg/L) Replicates 1” value is listed as 0.02 mg/L. In addition, the “[meropenem] (mg/L) Replicates 2” value under setting [3] was found to be 0.10 mg/L. Besides, under setting [4], the “[meropenem] (mg/L) Replicates 3” value was determined as 0.11 mg/L.
For `CC[C@@H](C(N)=O)N1CCCC1=O` [Keppra] the same measures were -0.07 mg/L, -0.07 mg/L, -0.07 mg/L and -0.06 mg/L.
For `NS(=O)(=O)c1cc(C(=O)O)c(NCc2ccco2)cc1Cl` [Lasix] the same measures were -0.12 mg/L, -0.13 mg/L, -0.15 mg/L and -0.09 mg/L.
On to `Cc1ncc2n1-c1ccc(Cl)cc1C(c1ccccc1F)=NC2` [Midazolam Braun], for which the “[meropenem] (mg/L) Replicates 1” value was -0.07 mg/L, the “[meropenem] (mg/L) Replicates 2” value was -0.09 mg/L and the “[meropenem] (mg/L) Replicates 3” value is -0.06 mg/L. Besides, the “Average [meropenem]” value under setting [5] is -0.07 mg/L.
Regarding `Cc1[nH]c(=O)c(C#N)cc1-c1ccncc1` [Milrinone], under setting [1], the “Average [meropenem]” value is recorded as 0.09 mg/L. Further, the “[meropenem] (mg/L) Replicates 1” value under setting [2] was 0.14 mg/L. Besides, the “[meropenem] (mg/L) Replicates 2” value under setting [3] is recorded as 0.06 mg/L. Moreover, the “[meropenem] (mg/L) Replicates 3” value under setting [4] stood at 0.06 mg/L.
In the case of `CN1CC[C@]23c4c5ccc(O)c4O[C@H]2[C@@H](O)C=C[C@H]3[C@H]1C5` [Morphine], the “Average [meropenem]” value under setting [1] is -0.13 mg/L. The “[meropenem] (mg/L) Replicates 1” value under setting [2] was -0.12 mg/L. Also, under setting [3], the “[meropenem] (mg/L) Replicates 2” value was -0.15 mg/L. Further, the “[meropenem] (mg/L) Replicates 3” value under setting [4] is -0.10 mg/L.
The corresponding values for `COc1ccc(C[C@@H]2c3cc(OC)c(OC)cc3CC[N@+]2(C)CCC(=O)OCCCCCOC(=O)CC[N@@+]2(C)CCc3cc(OC)c(OC)cc3[C@H]2Cc2ccc(OC)c(OC)c2)cc1OC` [Nimbex] are -0.03 mg/L, 0.01 mg/L, -0.04 mg/L and -0.08 mg/L.
The corresponding values for `NC[C@H](O)c1ccc(O)c(O)c1` [Noradrenaline] are -0.11 mg/L, -0.12 mg/L, -0.12 mg/L and -0.08 mg/L.
With `COc1ccnc(C[S+]([O-])c2nc3cc(OC(F)F)ccc3[nH]2)c1OC` (stereo not drawn) [Pantomed], the “[meropenem] (mg/L) Replicates 1” value is listed as 0.02 mg/L, the “[meropenem] (mg/L) Replicates 2” value worked out at 0.01 mg/L and the “[meropenem] (mg/L) Replicates 3” value is -0.05 mg/L. Further, under setting [5], the “Average [meropenem]” value was -0.01 mg/L.
The corresponding values for `C=CC[C@@H]1/C=C(\C)C[C@H](C)C[C@H](OC)[C@H]2O[C@@](O)(C(=O)C(=O)N3CCCC[C@H]3C(=O)O[C@H](/C(C)=C/[C@@H]3CC[C@@H](O)[C@H](OC)C3)[C@H](C)[C@@H](O)CC1=O)[C@H](C)C[C@@H]2OC.O` [Prograft] are -0.07 mg/L, -0.06 mg/L, -0.02 mg/L and -0.05 mg/L.
With `COC(=O)C1=C(C)NC(C)=C(C(=O)OCCN(C)Cc2ccccc2)C1c1cccc([N+](=O)[O-])c1` (stereo not drawn) [Rydene], the “Average [meropenem]” value under setting [1] came out at 0.04 mg/L. Further, the “[meropenem] (mg/L) Replicates 1” value under setting [2] is reported as 0.06 mg/L. Besides, under setting [3], the “[meropenem] (mg/L) Replicates 2” value came to 0.00 mg/L. Also, the “[meropenem] (mg/L) Replicates 3” value under setting [4] stood at 0.06 mg/L.
`CC(C)(C)NCC(O)c1ccc(O)c(CO)c1` (stereo not drawn) [Salbutamol]: the “Average [meropenem]” value under setting [1] is reported as 0.09 mg/L. Moreover, the “[meropenem] (mg/L) Replicates 1” value under setting [2] stood at 0.16 mg/L. For the same compound, under setting [3], the “[meropenem] (mg/L) Replicates 2” value is reported as 0.07 mg/L. For the same compound, the “[meropenem] (mg/L) Replicates 3” value under setting [4] was found to be 0.05 mg/L.
Turning to `C[C@H]1C[C@@H]2[C@H]([C@@H](O)C[C@@]3(C)[C@H]2CC[C@]3(O)C(=O)COC(=O)CCC(=O)O)[C@@]2(C)C=CC(=O)C=C12` [Solu-Medrol], under setting [1], the “Average [meropenem]” value is 0.01 mg/L. The “[meropenem] (mg/L) Replicates 1” value under setting [2] is -0.01 mg/L. Further, under setting [3], the “[meropenem] (mg/L) Replicates 2” value is listed as 0.02 mg/L. Further, the “[meropenem] (mg/L) Replicates 3” value under setting [4] is recorded as 0.01 mg/L.
In the case of `C[C@]12CCC(=O)C=C1CC[C@@H]1[C@@H]2[C@@H](O)C[C@@]2(C)[C@H]1CC[C@]2(O)C(=O)COC(=O)CCC(=O)O` [Solu-cortef], the “Average [meropenem]” value under setting [1] is -0.03 mg/L. Besides, the “[meropenem] (mg/L) Replicates 1” value under setting [2] is -0.10 mg/L. For the same compound, under setting [3], the “[meropenem] (mg/L) Replicates 2” value is given as 0.02 mg/L. In addition, the “[meropenem] (mg/L) Replicates 3” value under setting [4] was 0.00 mg/L.
With `CCC1(CC)C(=O)NC(=S)NC1=O` [Thiobarbital], the “Average [meropenem]” value under setting [1] worked out at 0.10 mg/L. The “[meropenem] (mg/L) Replicates 1” value under setting [2] is 0.12 mg/L. Also, the “[meropenem] (mg/L) Replicates 2” value under setting [3] was determined as 0.11 mg/L. Under setting [4], the “[meropenem] (mg/L) Replicates 3” value was 0.09 mg/L.
The corresponding values for `C[C@@H](c1ncncc1F)[C@](O)(Cn1cncn1)c1ccc(F)cc1F` [Voriconazole] are 0.01 mg/L, 0.00 mg/L, -0.06 mg/L and 0.10 mg/L.
As to Actrapid, the “[meropenem] (mg/L) Replicates 1” value was determined as 0.04 mg/L, the “[meropenem] (mg/L) Replicates 2” value was found to be 0.04 mg/L and the “[meropenem] (mg/L) Replicates 3” value came to 0.06 mg/L. In addition, under setting [5], the “Average [meropenem]” value was found to be 0.05 mg/L.
Consider protamine, for which the “[meropenem] (mg/L) Replicates 1” value stood at 0.64 mg/L, the “[meropenem] (mg/L) Replicates 2” value is listed as 0.69 mg/L, the “[meropenem] (mg/L) Replicates 3” value amounted to 0.72 mg/L and the “interference with the method” value was “excepted for protamine”. For the same compound, the “Average [meropenem]” value under setting [5] was found to be 0.68 mg/L.
